Values quoted from earlier work as cited in patent US8440424B2, “Identification of antibiotic resistance using labelled antibiotics” (miacom Diagnostics GmbH, priority 2008, dated 2013).
Where two headings read alike, the source gives them in different places. Positions of bridges follow the written chain, without caps; N, C: chain ends. Non-standard residues stand in square brackets, D forms with d. Residues, ends and D or L forms follow the SMILES beside them. *: point of attachment. NMePhe(4-NMe2) = CN[C@@H](Cc1ccc(N(C)C)cc1)C(=O)O; Pip(4-oxo) = O=C1CCN[C@H](C(=O)O)C1; Picolinoyl(3-OH) = O=C(c1ncccc1O)*; Phg = N[C@H](C(=O)O)c1ccccc1; dAbu = CC[C@@H](N)C(=O)O

System: 23S rRNA
Conditions: cited from earlier work
[1] = 23S rRNA position 2611 "C to G", Chlamydomonas reinhardtii, Harris et al. 1989
[2] = 23S rRNA position 2611 "C to U", Chlamydomonas reinhardtii, Harris et al. 1989

## C[C@H]1O[C@H](O[C@H]2CC[C@H](n3ccc(NC(=O)c4ccc(NC(=O)[C@@](C)(N)CO)cc4)nc3=O)O[C@@H]2C)[C@H](O)[C@@H](O)[C@@H]1N(C)C [Amicetin]
23S rRNA position 2438 U to A, Halobacterium halobium, Leviev 1994
  Phenotype: Amicetin resistance
23S rRNA position 2438 U to C, Halobacterium halobium, Leviev 1994
  Phenotype: Amicetin resistance.

## COc1ccc(C[C@H]2NC[C@H](O)[C@H]2OC(C)=O)cc1 [Animosycin]
23S rRNA position 2452 C to U, Halobacterium, Hummel 1987
  Phenotype: Animosycin resistance.
23S rRNA position 2452 C to U, Tetrahymena thermophilia, Sweeney 1991
  Phenotype: Animosycin resistance

## COc1ccc(C[C@H]2NC[C@H](O)[C@H]2OC(C)=O)cc1 [Anisomycin]
23S rRNA position 2447 G to C, Halobacterium halobium, Hummel 1987
  Phenotype: resistance.
23S rRNA position 2453 A to C, Halobacterium halobium, Hummel 1987
  Phenotype: Anisomycin resistance

## O=C(N[C@H](CO)[C@H](O)c1ccc([N+](=O)[O-])cc1)C(Cl)Cl [CAM]
23S rRNA position 2505 G to C (with A1067U and thiostrepton), E. coli, Saarma 1992, 1993
  Phenotype: Hypersensitivity to CAM;

## O=C(N[C@H](CO)[C@H](O)c1ccc([N+](=O)[O-])cc1)C(Cl)Cl [Chloramphenicol]
23S rRNA position 2061 G to A, Rat mitochondria
  Phenotype: resistance
23S rRNA position 2062 A to C, Halobacterium halobium
  Phenotype: resistance.
23S rRNA position 2447 G to A, Yeast mitochondria, Dujon 1980
  Phenotype: resistance.
23S rRNA position 2451 A to U, Mouse mitochondria, Kearsey 1981
  Phenotype: resistance.
23S rRNA position 2452 C to A, Human mitochondria, Blanc 1981
  Phenotype: resistance.
23S rRNA position 2452 C to U, Halobacterium halobium, Mankin 1991
  Phenotype: resistance.
23S rRNA position 2452 C to U, Mouse mitochondria, Slott 1983
  Phenotype: resistance
23S rRNA position 2503 A to C, Yeast mitochondria, Dujon 1980
  Phenotype: resistance
23S rRNA position 2504 U to C, Human mitochondria, Kearsey 1981
  Phenotype: resistance
23S rRNA position 2504 U to C, Mouse mitochondria, Blanc 1981
  Phenotype: resistance

## CC[C@H]1OC(=O)[C@H](C)[C@@H](O[C@H]2C[C@@](C)(OC)[C@@H](O)[C@H](C)O2)[C@H](C)[C@@H](O[C@@H]2O[C@H](C)C[C@H](N(C)C)[C@H]2O)[C@](C)(OC)C[C@@H](C)C(=O)[C@H](C)[C@@H](O)[C@]1(C)O [Clarithomycin]
23S rRNA position 2059 A to G, Helicobacter pylori
  Phenotype: resistance.

## CC[C@H]1OC(=O)[C@H](C)[C@@H](O[C@H]2C[C@@](C)(OC)[C@@H](O)[C@H](C)O2)[C@H](C)[C@@H](O[C@@H]2O[C@H](C)C[C@H](N(C)C)[C@H]2O)[C@](C)(OC)C[C@@H](C)C(=O)[C@H](C)[C@@H](O)[C@]1(C)O [Clarithromycin]
23S rRNA position 2058 A to G, Helicobacter pylori
  Phenotype: resistance

## CC[C@H]1OC(=O)[C@H](C)[C@@H](O[C@H]2C[C@@](C)(OC)[C@@H](O)[C@H](C)O2)[C@H](C)[C@@H](O[C@@H]2O[C@H](C)C[C@H](N(C)C)[C@H]2O)[C@](C)(O)C[C@@H](C)C(=O)[C@H](C)[C@@H](O)[C@]1(C)O [Ery]
23S rRNA double mutation (A2058U/G2032A), E. coli
  Phenotype: hs
23S rRNA double mutation (G2032A/A2058U), E. coli
  Phenotype: hs
23S rRNA double mutation (G2057A/C2661U), E. coli
  Phenotype: Slightly Eryr;
[1]
  Phenotype: Eryr
[2]
  Phenotype: Eryr
23S rRNA position 2611 "C to U", double mutation (C2611U/G2057A), E. coli, Vester et al. 1995
  Phenotype: Slightly Eryr; reduced

## CC[C@H]1OC(=O)[C@H](C)[C@@H](O[C@H]2C[C@@](C)(OC)[C@@H](O)[C@H](C)O2)[C@H](C)[C@@H](O[C@@H]2O[C@H](C)C[C@H](N(C)C)[C@H]2O)[C@](C)(O)C[C@@H](C)C(=O)[C@H](C)[C@@H](O)[C@]1(C)O [Erythromycin]
23S rRNA double deletion (1230/1231), E. coli
  Phenotype: Erythromycin sensitive. a Double
23S rRNA double mutant (C1207U/C1243U), E. coli
  Phenotype: Erythromycin resistant. a Double
23S rRNA double mutant (C1208U/C1243U), E. coli
  Phenotype: Erythromycin resistant. a Double
23S rRNA double mutant (C1211U/C1208U), E. coli
  Phenotype: Erythromycin sensitive. a Double
23S rRNA double mutant (C1221U/C1229U), E. coli
  Phenotype: Erythromycin resistant. a Double
23S rRNA double mutant (C1221U/C1233U), E. coli
  Phenotype: Erythromycin resistant. a Double
23S rRNA double mutant (C1243U/C1221U), E. coli
  Phenotype: Erythromycin resistant. a Double
23S rRNA double mutant (G1220A/G1239A), E. coli
  Phenotype: Erythromycin resistant. a Double
23S rRNA double mutant (G1232A/G1238A), E. coli
  Phenotype: Erythromycin sensitive. a Double
23S rRNA position 1233 C to U, E. coli
  Phenotype: Erythromycin sensitive. a
23S rRNA position 1234 U to C, E. coli
  Phenotype: Erythromycin sensitive. a
23S rRNA position 1234 del1234/del1235, double mutant (U1234C/del1235), E. coli
  Phenotype: Erythromycin sensitive. a Double
23S rRNA position 2058 A to G, Yeast mitochondria
  Phenotype: resistance.
23S rRNA position 2611 "C to G", Chlamydomonas reinhardtii, Gauthier et al. 1988
  Phenotype: spiramycin resistance
23S rRNA position 2611 "C to G", Yeast mitochondria, Sor and Fukahara 1984
  Phenotype: spiramycin resistance

## CCC[C@@H]1C[C@@H](C(=O)N[C@@H]([C@H]2O[C@H](SC)[C@H](O)[C@@H](O)[C@H]2O)[C@@H](C)O)N(C)C1 [Lincomycin]
23S rRNA position 2032 G to A, Tobbaco chloroplasts
  Phenotype: resistance.
23S rRNA position 2058 A to G, Chlamydomonas reinhardtii
  Phenotype: resistance.
23S rRNA position 2058 A to G, Solanum nigrum
  Phenotype: resistance.
23S rRNA position 2058 A to G, Tobacco chloroplasts
  Phenotype: resistance.
23S rRNA position 2059 A to G, Tobacco chloroplasts
  Phenotype: resistance.

## CSC[S@+]([O-])C[C@H](CO)NC(=O)/C=C/c1c(C)[nH]c(=O)[nH]c1=O [Sparsomycin]
23S rRNA position 2499 C to U, Halobacterium halobium, Tan 1996
  Phenotype: resistance

## O=C(N[C@H](CO)[C@H](O)c1ccc([N+](=O)[O-])cc1)C(Cl)Cl [chloramphenicol]
23S rRNA position 2505 G to A, E. coli, Hansen 1999
  Phenotype: Conferred resistance to

## CC[C@H]1OC(=O)[C@H](C)[C@@H](O[C@H]2C[C@@](C)(OC)[C@@H](O)[C@H](C)O2)[C@H](C)[C@@H](O[C@@H]2O[C@H](C)C[C@H](N(C)C)[C@H]2O)[C@](C)(O)C[C@@H](C)C(=O)[C@H](C)[C@@H](O)[C@]1(C)O [erythromycin]
23S rRNA double mutant (A1262G/U2017C), E. coli, growth on erythromycin
  Phenotype: Wild-type growth on
23S rRNA double mutant (A1262U/U2017A), E. coli, growth on erythromycin
  Phenotype: Wild-type growth on
23S rRNA double mutant (G1137A/G1138C), E. coli, with 2058G and erythromycin, expressed from rrnB promoter
  Phenotype: lethal when expressed from rrnB
23S rRNA position 1068 G to A, E. coli, with 2058G, expressed from rrnB or pL promotor in presence of erythromycin
  Phenotype: 2058G) Lethal when
23S rRNA position 1072 C to U, E. coli, expressed from rrnB or pL promotor in presence of erythromycin
  Phenotype: Lethal when expressed from
23S rRNA position 1137 G to A, E. coli, with 2058G and erythromycin, expressed from rrnB promoter
  Phenotype: lethal when expressed from rrnB
23S rRNA position 1138 G to C, E. coli, with 2058G and erythromycin, expressed from rrnB promoter
  Phenotype: lethal when expressed from rrnB
23S rRNA position 1262 A to C, E. coli, with erythromycin
  Phenotype: With erythromycin; lethal
23S rRNA position 1262 A to G, E. coli, with erythromycin
  Phenotype: With erythromycin; lethal

## CCC[C@@H]1C[C@@H](C(=O)N[C@@H]([C@H]2O[C@H](SC)[C@H](O)[C@@H](O)[C@H]2O)[C@@H](C)O)N(C)C1 [lincomycin]
[1]
  Phenotype: low level
[2]
  Phenotype: low level

## CC[C@H]1NC(=O)[C@@H](NC(=O)c2ncccc2O)[C@@H](C)OC(=O)[C@H](c2ccccc2)NC(=O)[C@@H]2CC(=O)CCN2C(=O)[C@H](Cc2ccc(N(C)C)cc2)N(C)C(=O)[C@@H]2CCCN2C1=O [pristinamycin 1A] ({Picolinoyl(3-OH)}-T[dAbu]P[NMePhe(4-NMe2)][Pip(4-oxo)][Phg]; ester 1-C)
23S rRNA A2602C/C2501A, E. coli, binding on peptidyl transferase loop, Porse 1999
  Phenotype: Inhibits binding of 1A
23S rRNA U2500A/C2501A, E. coli, binding on peptidyl transferase loop, Porse 1999
  Phenotype: Inhibits binding of 1A

## CSC[S@+]([O-])C[C@H](CO)NC(=O)/C=C/c1c(C)[nH]c(=O)[nH]c1=O [sparsomycin]
23S rRNA position 2452 C to U, Halobacterium halobium, Tan 1996
  Phenotype (level of resistance): Low level sparsomycin
